In PubChem BioAssay (NCI):
Where “and” joins values, the source holds several entries; their conditions need not be identical. Equal entries are not always repeated.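 Grown in 96-well plates, cells were treated for 48 hours with each compound at five concentrations. Insufficient inhibition: endpoint recorded as highest concentration tested. GI50 is the concentration that inhibits growth by half. TGI: total growth inhibition.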

How the values were obtained:
Assay in all cases: NCI anticancer screen, dose series, 48 h
[1] = system: 786-0 renal
[2] = system: COLO 205 colon
[3] = system: NCI/ADR-RES ovarian
[4] = system: OVCAR-4 ovarian
[5] = system: OVCAR-5 ovarian
[6] = system: OVCAR-8 ovarian
[7] = system: TK-10 renal
[8] = system: UACC-257 melanoma
[9] = system: UACC-62 melanoma
[10] = system: UO-31 renal

| SMILES | GI50 [1] | TGI [1] | GI50 [2] | TGI [2] | GI50 [3] | TGI [3] [µM] | GI50 [4] | TGI [4] [µM] | GI50 [5] | TGI [5] [µM] | GI50 [6] | TGI [6] | GI50 [7] | TGI [7] | GI50 [8] | TGI [8] | GI50 [9] [µM] | TGI [9] [µM] | GI50 [10] | TGI [10] [µM] |
| --- | --- | --- | --- | --- | --- | --- | --- | --- | --- | --- | --- | --- | --- | --- | --- | --- | --- | --- | --- | --- |
| CN1C(=O)C(C)(C)Oc2c(-c3cn(C)c(=O)c4[nH]ccc34)cc(S(C)(=O)=O)cc21 | 2.06 µM | > 100 µM | 0.469 µM | 10.5 µM | 14.3 µM | > 100 | 0.741 µM | 33.6 | 1.06 µM | > 100 | 1.81 µM | > 100 µM | 0.495 µM | 14.6 µM | 0.865 µM | > 100 µM | 0.39 | 11.8 | 0.431 µM | > 100 |
| NC(N)=NC(N)=NCc1ccco1 | > 1250 µM | > 1250 µM | > 1250 µM | > 1250 µM | > 1250 µM | > 1250 | 316 µM | > 1250 | > 1250 µM | > 1250 | 896 µM | > 1250 µM | > 1250 µM | > 1250 µM | 843 µM and 565 µM | > 1250 µM | 748 | > 1250 | > 1250 µM | > 1250 |
| CC(=O)Nc1cc(CN2CCCCC2)c(O)c2ncccc12 |  | 40.9 µM |  | > 100 µM |  | > 100 |  | > 100 |  | > 100 |  | > 100 µM |  | > 100 µM |  | 88.7 µM |  | 46.3 |  | 46.8 |
| COc1ccc(-c2cc(=O)c3cccnc3[nH]2)cc1 | 56.5 µM | > 100 µM |  | 52.5 µM |  | > 100 |  | > 100 |  | > 100 |  | > 100 µM |  | > 100 µM |  | > 100 µM |  | 91.2 |  | > 100 |
| C=CC(=O)Nc1cccc(Nc2nc(Nc3ccc(N4CCN(C(C)=O)CC4)cc3OC)ncc2C(F)(F)F)c1 | 2.67 µM and 1.56 µM | > 10 µM and 12.8 µM | 1.86 µM and 1.78 µM | 4.71 µM and 5.75 µM | 7.5 µM and 9.09 µM | > 74.4 | 5.12 µM and 1.71 µM | > 65.9 | 3.15 µM and 2.29 µM | > 100 | 4.05 µM and 3.51 µM | > 10 µM and 98.2 µM | 0.32 µM and 0.441 µM | 2.16 µM and 4.03 µM | 3.97 µM and 2.97 µM | > 10 µM and 68.8 µM | 2.7 | 22.6 | 2.05 µM and 1.76 µM | > 68.6 |
